According to US5858968A, “Method of treating or preventing type 1 diabetes by oral administration of insulin” (AutoImmune Inc., priority 1995, dated 1999):
Where “and” joins values, the source holds several entries; their conditions need not be identical. Equal entries are not always repeated. Entries after “also recorded” stand apart in the source; their conditions may differ.

Columns and labels:
Format in all cases: in vivo
[1] = system: NOD mice; assay: Effect of feeding porcine insulin on spontaneous diabetes in NOD mice
From the text: NOD (non-obese diabetic mice) were obtained from Taconic Laboratories (Germantown, Mass.) at 4 weeks of age. There were a total of 30 animals in each of the groups mentioned below at the beginning of the experiment. At 4 1/2 weeks of age, animals were orally administered Porcine insulin (Novo Laboratories, Danbury, Conn.). Each animal received two treatments orally twice a week until 9 weeks of age. The mice were fed either saline (control) or 10 micrograms, 100 micrograms, or 1 milligram of Porcine insulin. The animals were fed (gavaged) with an 18 gauge ball-point needle (Popper and Sons, Inc., New Hyde Park, N.Y.). Beginning at 10 weeks the animals were then fed once a week for a total of 33 weeks. Beginning at 12 weeks the urine was tested weekly for the presence of glucose using Glucosuria test tape (Eli Lilly, Indianapolis, Ind.). If an animal tested 3+or higher on the glucose urine test, a serum sample was taken and blood glucose measured using a glucose analyzer (Beckman). If the blood glucose was 220 or higher, the animals were classified as diabetic and then sacrificed.

[2] = system: NOD mice; assay: Glucose post oral insulin in fasting 7 week NOD mice; details: fasting 7 week old NOD mice
Protocol: In order to determine whether any endocrinologic (i.e. direct lowering of blood sugar) effects occurred following the feeding of insulin, 7 week old NOD mice (5 mice per group) were fed 1 mg of porcine insulin or 1 mg of myelin basic protein (obtained from Pel Freez, Rogers, Ariz.) as a control protein. Blood glucose was then measured over the next 24 hour period. As a positive control, a separate group of animals were injected subcutaneously with 20 micrograms of Porcine insulin. All animals were kept in the fasting state.

[3] = system: NOD mice; assay: Insulitis in NOD mice fed insulin (preliminary experiments); details: NOD mice fed 1 mg, vs PBS-fed NOD mice; data not shown
From the text: Therefore, oral administration of insulin to NOD mice appeared to be affecting the infiltration of immune system cells into the pancreas and thus halting disease progression by preserving beta cell function.

[4] = system: NOD mice; assay: Treatment of initial stages of diabetes in NOD mice; details: oral and aerosol administration, 0 to 1 mg, hyperglycemic NOD mice
Protocol: Insulin (0 to 1 mg as in Examples 1 and 2) will be administered to NOD mice which are suffering from hyperglycemia in an oral and aerosol form. The treatments will begin by weeks 12-20 of age, by which the serum glucose levels are at hyperglycemic concentrations in a certain percentage of animals prior to onset of diabetes.

[5] = subcutaneous injection of 20 micrograms

Molecule: insulin: Porcine insulin (Novo Laboratories, Danbury, Conn.), given orally by gavage, subcutaneously as positive control, or planned as aerosol
- development of diabetes ([1]; NOD mice fed 1 mg insulin orally (gavage), vs saline control, diabetic = blood glucose 220 or higher): none of the mice went on to develop diabetes; also recorded: no diabetes developed; also recorded: None of the animals developed diabetes
- development of diabetes ([1]; NOD mice fed 10 micrograms insulin orally, dose response fashion): diabetes developed
- blood sugar in individual animals which developed diabetes ([1]; NOD mice fed 10 micrograms of insulin): 330 mg/dL and 420 mg/dL and 315 mg/dL and 459 mg/dL and 520 mg/dL and 487 mg/dL
- development of diabetes ([1]; NOD mice fed 100 micrograms insulin orally, dose response fashion): diabetes developed
- blood sugar in individual animals that became diabetic ([1]; NOD mice fed 100 micrograms of insulin): 500 mg/dL and 290 mg/dL and 600 mg/dL and 450 mg/dL
- incidence of diabetes ([1]; NOD mice, all doses of orally administered insulin, dose-dependent): lower incidence of diabetes; also recorded: reduced the numbers of these mice which subsequently went on to develop diabetes
- treated animals that failed to develop diabetes ([1]; NOD mice, highest dose of oral insulin (1 mg)): 100%
- blood glucose after feeding ([2]; 1 mg oral): no drop in the blood glucose
- blood glucose over the next 24 hours ([2]; 1 mg oral): gradual decrease in blood glucose
- endocrinologic (metabolic) effects ([2]; 1 mg oral): no endocrinologic (metabolic) effects
- decrease in glucose level [2, 5]: approximately 80 mg %
- period over which the glucose decrease persisted [2, 5]: 4 h
- inflammatory immune system cells surrounding the pancreas (insulitis) [3]: fewer inflammatory immune system cells surrounding the pancreas
- beta cell function [4]: preservation of beta cell function
- serum glucose concentrations [4]: reduction in serum glucose concentrations to near normal levels

B1: myelin basic protein: myelin basic protein (obtained from Pel Freez, Rogers, Ariz.) fed as a control protein (protein, UniProt P02686 1-304, looked up)
Myelin basic protein: MGNHAGKRELNAEKASTNSETNRGESEKKRNLGELSRTTSEDNEVFGEADANQNNGTSSQDTAVTDSKRTADPKNAWQDAHPADPGSRPHLIRLFSRDAPGREDNTFKDRPSESDELQTIQEDSAATSESLDVMASQKRPSQRHGSKYLATASTMDHARHGFLPRHRDTGILDSIGRFFGGDRGAPKRGSGKDSHHPARTAHYGSLPQKSHGRTQDENPVVHFFKNIVTPRTPPPSQGKGRGLSLSRFSWGAEGQRPGFGYGGRASDYKSAHKGFKGVDAQGTLSKIFKLGGRDSRSGSPMARR
- blood glucose after feeding ([2]; 1 mg oral): no drop in the blood glucose
- blood glucose over the next 24 hours ([2]; 1 mg oral): gradual decrease in blood glucose
